Values of other authors in US20170037184A1, “VITAMIN E-BASED NANOCARRIERS FOR DRUG DELIVERY AND METHODS OF MAKING AND USING THE SAME” (THE CORPORATION OF MERCER UNIVERSITY, priority 2014, published 2017).

Details: ethylenediamine group of DET conjugated to polyasparagine

Q: Which pKa1 does the source give for `NCCNCCN` [DET, diethylenetriamine] here?
A: The pKa1 was 9.5.

Q: What about the pKa2 of the same compound?
A: The pKa2 was 6.0.
